Source: publication PMC5799307, “Creation of a long-acting nanoformulated dolutegravir” (Nature Communications, 2018)

Key:
[1] = Pharmacokinetics and biodistribution in Balb/cJ mice, single IM dose; details: male, mouse, in vivo
Procedure: Male Balb/cJ mice (6–8 weeks of age; Jackson Labs, Bar Harbor, ME) were injected with NDTG or NMDTG (45 mg/kg DTG-eq.) intramuscularly (IM; caudal thigh muscle) in a volume of 40 µL/25 g mouse. For injections, NDTG and NMDTG were diluted to 28.1 mg DTG/mL in endotoxin-free water and 42.3 mg MDTG/mL in HEPES buffer, respectively. Twenty-five microliters of whole blood was collected by cheek puncture into 1 mL ACN at 1, 3, 7, 14, 21, 28, 35, 42, 49, and 56 days after drug administration. Animals were humanely euthanized using isoflurane followed by cervical dislocation at 28 and 56 days, and tissues (spleen, liver, lymph nodes, lungs, kidneys, gut-associated lymphoid tissue (GALT), and brain) were collected for drug quantitation. Drug concentration in whole blood and tissues was determined by UPLC-MS/MS using a Waters Acquity UPLC- Xevo TQ-S micro mass spectrometry system (Milford, MA). For blood analysis, 10 µL of internal standard (IS) solution was added to each sample. […] MDTG was quantified using a 7-min gradient of the same mobile phases at a flow rate of 0.35 mL/min. […] DTG and MDTG were detected at cone voltages of 10 V and 16 V and collision energies of 25 V and 44 V, respectively. […] Spectra were analyzed and quantified by MassLynx software version 4.1. Quantitation was based upon drug peak area to internal standard peak area ratios.

[2] = Blood and tissue DTG levels and animal weights in hu-PBL-NSG mice; assay type: in vivo; details: NOD/scid-IL-2Rγc^null (NSG), mouse, intramuscular, 45 mg/kg DTG-eq.; kidney, day 39; read-out: tissue DTG level
Procedure: NOD/scid-IL-2Rγc^null (NSG) mice (6–7 weeks of age; Jackson Labs, Bar Harbor, ME) were administered a single IM injection in a volume of 40 µL/25 g mouse of NDTG or NMDTG at a concentration of 45 mg/kg DTG-eq. on day 0 for measures of relative viral restriction. Mice were then reconstituted with 25 × 10^6 human peripheral blood lymphocytes (hu-PBL) per mouse 4 or 19 days post drug treatment by IP injection. Next, mice were challenged 10 days post hu-PBL reconstitution with HIV-1ADA at 14 or 29 days post drug treatment by IP injection at a TCID50 of 2 × 10^4 per mouse. […] Plasma was saved for viral load (HIV-1 RNA) quantitation using the Roche Amplicor and Taqman-48 system [HIV-1 kit V2.0 according to the manufacturer’s instructions (Indianapolis, IN)]. Blood and tissue drug concentrations were determined by UPLC-MS/MS as described above. […] The number of HIV-1p24+ and HLA-DP/DQ/DR+ cells per section were counted and expressed as percentage of HIV-1p24+ cells/HLA-DP/DQ/DR+ cells per section. […] Plasma was used for quantitative viral load (measurements of HIV-1 RNA) using the Roche Amplicor and Taqman-48 system. Blood and tissue drug concentrations were determined by UPLC-MS/MS as described above. […]

SMILES	time prodrug was detectable in blood [1]	concentration at 39 days [2]
CCCCCCCCCCCCCC(=O)Oc1c2n(cc(C(=O)NCc3ccc(F)cc3F)c1=O)C[C@@H]1OCC[C@@H](C)N1C2=O [MDTG]	≤ 3 days	–
C[C@@H]1CCO[C@H]2Cn3cc(C(=O)NCc4ccc(F)cc4F)c(=O)c(O)c3C(=O)N12 [DTG, dolutegravir]	–	4.1 ng/g
